In this assay the test system is SR (NPM-ALK) cells. The assay can be described thus: Growth inhibition IC50 in ALCL SR cells (CCK8/WST, 72 hours). The format is cell-based.
The mark [1] stands for this setting: SR cells, WST, Alectinib based ALK PROTAD compounds (Table 4).

SMILES strings stand for the structures. Read-outs that look alike come from different tables or passages of the source.

Experimental findings from patent publication US11771709B2, “ALK protein degradation agent and anti-tumor application thereof” (ShanghaiTech University, priority 2017, dated 2023) are described below.

Protocol: SR (NPM-ALK) and NCI-H2228 (EML4-ALK, V3) cells were purchased from ATCC. […] All Cells were cultured in RPMI1640 medium with 10% FBS and Penicillin-Streptomycin in 37° C. incubator with 5% CO2.
Cells were seeded at specific density in 96 well plates one day before treatment. […] Viable cells were measured via CCK8 reagent and IC50s were calculated via Prism Graphad. Experiments were repeated at least three times.

As to `CCc1cc2c(cc1N1CCNCC1)C(C)(C)c1[nH]c3cc(C#N)ccc3c1C2=O` [Alectinib Analogue A, 9-ethyl-6,6-dimethyl-11-oxo-8-(piperazin-1-yl)-6,11-dihydro-5H-benzo[b]carbazole-3-carbonitrile, reference compound], the IC50 is 2.4 nM.

The compound `CCc1cc2c(cc1N1CCC(N)CC1)C(C)(C)c1[nH]c3cc(C#N)ccc3c1C2=O` [Alectinib Analogue B(SIAIS184193), 8-(4-aminopiperidin-1-yl)-9-ethyl-6,6-dimethyl-11-oxo-6,11-dihydro-5H-benzo[b]carbazole-3-carbonitrile] displayed an IC50 under setting [1] of 14.7 nM.

`CCc1cc2c(cc1N1CCC(N3CCNCC3)CC1)C(C)(C)c1[nH]c3cc(C#N)ccc3c1C2=O` [Alectinib Analogue C(SIAIS184192), 9-ethyl-6,6-dimethyl-11-oxo-8-(4-(piperazin-1-yl)piperidin-1-yl)-6,11-dihydro-5H-benzo[b]carbazole-3-carbonitrile] came in with an IC50 under setting [1] of 19.1 nM.

In turn, `COc1cc(N2CCNCC2)ccc1Nc1ncc(Cl)c(Nc2ccccc2P(C)(C)=O)n1` [Brigatinib Analogue A(SIAIS1197135), (2-((5-chloro-2-((2-methoxy-4-(piperazin-1-yl)phenyl)amino)pyrimidin-4-yl)amino)phenyl) dimethylphosphine oxide] registered an IC50 (SR cells, WST, 72 hours, Brigatinib-based PROTAD molecules (Table 3)) of 1.6 ± 1 nM.

`COc1cc(N2CCC(NC(=O)CCOCCOCCOCCOCCOCCNc3cccc4c3C(=O)N(C3CCC(=O)NC3=O)C4=O)CC2)ccc1Nc1ncc(Cl)c(Nc2ccccc2P(C)(C)=O)n1` (centres unmarked) [SIAIS151117, N-(1-(4-((5-chloro-4-((2-(dimethylphosphoryl)phenyl)amino)pyrimidin-2-yl)amino)-3-methoxyphenyl)piperidin-4-yl)-1-((2-(2,6-dioxopiperidin-3-yl)-1,3-dioxoisoindolin-4-yl)amino)-3,6,9,12,15-pentaoxaoctadecan-18-amide] registered an IC50 (72 h, SR cells, WST, Brigatinib-based PROTAD molecules (Table 3)) of 30.9 ± 21.3 nM.

As for `CCc1cc2c(cc1N1CCN(C(=O)CCNc3cccc4c3C(=O)N(C3CCC(=O)NC3=O)C4=O)CC1)C(C)(C)c1[nH]c3cc(C#N)ccc3c1C2=O` (centres unmarked) [SIAIS164029, 8-(4-(3-((2-(2,6-dioxopiperidin-3-yl)-1,3-dioxoisoindolin-4-yl)amino)propanoyl)piperazin-1-yl)-9-ethyl-6,6-dimethyl-11-oxo-6,11-dihydro-5H-benzo[b]carbazole-3-carbonitrile], the IC50 under setting [1] was 27.3 nM.

Under setting [1], `CCc1cc2c(cc1N1CCN(C(=O)CCOCCOCCOCCC(=O)N[C@H](C(=O)N3C[C@H](O)C[C@H]3C(=O)NCc3ccc(-c4scnc4C)cc3)C(C)(C)C)CC1)C(C)(C)c1[nH]c3cc(C#N)ccc3c1C2=O` [SIAIS164037, (2S,4R)-1-((S)-2-(tert-butyl)-16-(4-(3-cyano-9-ethyl-6,6-dimethyl-11-oxo-6,11-dihydro-5H-benzo[b]carbazol-8-yl)piperazin-1-yl)-4,16-dioxo-7,10,13-trioxa-3-azahexadecanoyl)-4-hydroxy-N-(4-(4-methylthiazol-5-yl)benzyl)pyrrolidine-2-carboxamide] registered an IC50 of 153 nM.

Consider `CCc1cc2c(cc1N1CCN(C(=O)CCCCC(=O)N[C@H](C(=O)N3C[C@H](O)C[C@H]3C(=O)NCc3ccc(-c4scnc4C)cc3)C(C)(C)C)CC1)C(C)(C)c1[nH]c3cc(C#N)ccc3c1C2=O` [SIAIS164095, (2S,4R)-1-((S)-2-(6-(4-(3-cyano-9-ethyl-6,6-dimethyl-11-oxo-6,11-dihydro-5H-benzo[b]carbazol-8-yl)piperazin-1-yl)-6-oxohexanamido)-3,3-dimethylbutanoyl)-4-hydroxy-N-(4-(4-methylthiazol-5-yl)benzyl)pyrrolidine-2-carboxamide], for which, under setting [1], the IC50 amounted to 71.3 nM.

What is called IC50 is the concentration that gives 50% inhibition. Higher therefore signals lower potency.
